The structures appear in SMILES notation.

For test [1], the system named is MCF-7 cells. In words: MTT cell viability assay, MCF-7. The conditions noted are these: Homo sapiens, MCF7, 48 h, read-out: Growth (%) MCF-7. The class given is cell-based, human. As for the experimental part:
(§1) The cell viability assay of each compound was carried out using the MTT assay. Each compound was dissolved in dimethyl sulfoxide (DMSO) at a concentration of 0.01 M. Serial dilutions were prepared with a non-supplemented culture medium. The effect of each compound on the cell viability was determined at two different concentrations (10 and 50 µM) in MCF-7, HTB-54, and HT-29 cells. In addition, the selected compounds were tested at six different concentrations between 0.1–100 µM in MCF-7, T47D, H1299, HTB-54, and 184B5 cells.
(§2) Briefly, 1 × 10^4 tumor cells/well or 2 × 10^4 non-tumorigenic cells/well were grown in 96-well plates for 12 h. Then, these cells were incubated with either DMSO (control) or a different concentration of each of the tested compounds for 48 h. Three hours before the termination point, 20 µL of MTT were added to measure the cellular viability. The resultant formazan crystals were dissolved in 50 µL of DMSO, and the absorbance was measured at 570 and 630 nm. The results are expressed as IC50, the half maximal inhibitory concentration. This value was calculated using OriginPro 8.5.1. software (OriginLab, Northampton, MA, USA) by nonlinear curve fitting. Furthermore, the selectivity index (SI) was calculated as the ratio of the IC50 values determined for the non-malignant and the tumor cells (IC50 (184B5)/IC50 (MCF-7). The data were obtained from at least three independent experiments performed in quadruplicates.

Test [2] has as its system HT-29 cells. In words: MTT cell viability assay, HT-29. Format: cell-based. The conditions noted are these: Homo sapiens, 48 h, read-out: Growth (%) HT-29. On the procedure: as §1, §2
(In general: Formazan colour is commonly taken as a measure of viable cells.)

For test [3], the system named is HTB-54 cells. Nature of the test: MTT cell viability assay, HTB-54. Format: cell-based. The conditions noted are these: Homo sapiens, HTB-54, 48 h, read-out: Growth (%) HTB-54. As for the experimental part: as §1, §2

For `O=C(NC(=[Se])Nc1ccccc1)c1ccccc1` [Compound 1a], the activity at 10 µM stood at 70.5% in test [1], 56.9% in test [2] and 67.8% in test [3]. Besides, the activity at 50 µM in test [1] came to 6.6%; in test [2], 23.4%; in test [3] it was 57.1%.

As to `Cc1ccc(NC(=[Se])NC(=O)c2ccccc2)cc1` [Compound 1b], the activity at 10 µM in test [1] was 64.2%; in test [2], 60.4%; in test [3], 75.8%. Besides, the activity at 50 µM in test [1] is 12.6%; in test [2] it was 28%; in test [3], 61.1%.

For the compound `O=C(NC(=[Se])Nc1ccc(C(F)(F)F)cc1)c1ccccc1` [Compound 1d], the figures for the activity at 10 µM in test [1], in test [2] and in test [3] were 73.6%, 97.3% and 84.9%, respectively. Further, the activity at 50 µM in test [1] is 21.9%; in test [2], 25.1%; in test [3], 38.7%.

As for `Cc1ccc(NC(=[Se])NC(=O)c2ccccc2Cl)cc1` [Compound 2b], the activity at 10 µM stood at 60.1% in test [1], 80.2% in test [2] and 87.9% in test [3]. In addition, the activity at 50 µM in test [1] worked out at 24.7%; in test [2], 46.1%; in test [3] it was 66.6%.

On to `COc1ccc(NC(=[Se])NC(=O)c2ccccc2Cl)cc1` [Compound 2c], for which the activity at 10 µM is 62.6% in test [1], 76.3% in test [2] and 84.9% in test [3]. Further, the activity at 50 µM turned out to be 26.4% in test [1], 44.8% in test [2] and 66.7% in test [3].

For the compound `O=C(NC(=[Se])Nc1ccc(C(F)(F)F)cc1)c1ccccc1Cl` [Compound 2d], the results for the activity at 10 µM in test [1], in test [2] and in test [3] were 94.2%, 87.1% and 100%, respectively. Also, the values for the activity at 50 µM in test [1], in test [2] and in test [3] were 10.4%, 51.7% and 37.6%, respectively.

As to `O=C(NC(=[Se])Nc1ccc(Cl)cc1)c1ccccc1Cl` [Compound 2e], the activity at 10 µM in test [1] was 118%; in test [2] it was 77.8%; in test [3], 96.7%. For the same compound, the activity at 50 µM in test [1] is 16%; in test [2], 57.9%; in test [3], 18.6%.

For `CSc1ccc(Cl)c(C(=O)NC(=[Se])Nc2ccccc2)c1` [Compound 3a], the activity at 10 µM in test [1] was 84.1%; in test [2] it was 71.1%; in test [3] it was 88.8%. Also, the activity at 50 µM was 23.1% in test [1], 42.7% in test [2] and 49.9% in test [3].

With `COc1ccc(NC(=[Se])NC(=O)c2cc(SC)ccc2Cl)cc1` [Compound 3c], the activity at 10 µM was determined as 73.9% in test [1], 67.9% in test [2] and 79% in test [3]. Further, the results for the activity at 50 µM in test [1], in test [2] and in test [3] were 23.7%, 44.4% and 27.6%, respectively.

With `CSc1ccc(Cl)c(C(=O)NC(=[Se])Nc2ccc(Cl)cc2)c1` [Compound 3e], the results for the activity at 10 µM in test [1], in test [2] and in test [3] were 105%, 76.6% and 79.4%, respectively. Further, the activity at 50 µM in test [1] came to 32.4%; in test [2] it was 73%; in test [3], 35.8%.

On to `O=C(NC(=[Se])Nc1ccccc1)c1cccnc1Cl` [Compound 4a], for which the activity at 10 µM in test [1] was determined as 68.8%; in test [2], 99.1%; in test [3], 83.1%. The activity at 50 µM in test [1] was determined as 29.3%; in test [2] it was 34.1%; in test [3] it was 67.6%.

Take `Cc1ccc(NC(=[Se])NC(=O)c2cccnc2Cl)cc1` [Compound 4b]: the activity at 10 µM was determined as 77.6% in test [1], 99.2% in test [2] and 87% in test [3]. For the same compound, the results for the activity at 50 µM in test [1], in test [2] and in test [3] were 32.4%, 51.7% and 64.8%, respectively.

Consider `COc1ccc(NC(=[Se])NC(=O)c2cccnc2Cl)cc1` [Compound 4c], for which the activity at 10 µM in test [1] came to 86.6%; in test [2], 99.1%; in test [3] it was 88.9%. Also, the activity at 50 µM was determined as 33% in test [1], 51.6% in test [2] and 68.5% in test [3].

Consider `O=C(NC(=[Se])Nc1ccc(C(F)(F)F)cc1)c1cccnc1Cl` [Compound 4d], for which the values for the activity at 10 µM in test [1], in test [2] and in test [3] were 67.1%, 103% and 90.5%, respectively. The activity at 50 µM in test [1] was 48.9%; in test [2], 62.2%; in test [3], 62.2%.

Regarding `O=C(NC(=[Se])Nc1ccc(Cl)cc1)c1cccnc1Cl` [Compound 4e], the activity at 10 µM in test [1] is 90.6%; in test [2], 93.4%; in test [3], 92.1%. The activity at 50 µM in test [1] is 60.2%; in test [2] it was 67%; in test [3], 63.5%.

Regarding `O=C(NC(=[Se])Nc1ccccc1)c1cccs1` [Compound 5a], the activity at 10 µM in test [1] was found to be 70.3%; in test [2], 73.5%; in test [3], 76.8%. In addition, the activity at 50 µM in test [1] stood at 27.4%; in test [2] it was 39%; in test [3], 43.7%.

Turning to `Cc1ccc(NC(=[Se])NC(=O)c2cccs2)cc1` [Compound 5b], the activity at 10 µM in test [1] is 64.2%; in test [2], 82.8%; in test [3] it was 66.8%. For the same compound, the activity at 50 µM in test [1] came out at 17.5%; in test [2], 36.8%; in test [3] it was 66.7%.

Take `COc1ccc(NC(=[Se])NC(=O)c2cccs2)cc1` [Compound 5c]: the results for the activity at 10 µM in test [1], in test [2] and in test [3] were 90.7%, 57.5% and 85%, respectively. For the same compound, the activity at 50 µM came to 11.8% in test [1], 34.6% in test [2] and 60.2% in test [3].

On to `O=C(NC(=[Se])Nc1ccc(Cl)cc1)c1cccs1` [Compound 5e], for which the results for the activity at 10 µM in test [1], in test [2] and in test [3] were 77.6%, 78.1% and 73.2%, respectively. Further, the activity at 50 µM in test [1] amounted to 20.8%; in test [2], 37.8%; in test [3] it was 58.1%.

For the compound `Cc1ccc(NC(=[Se])NC(=O)c2ccco2)cc1` [Compound 6b], the activity at 10 µM in test [1] came to 64.9%; in test [2], 87.6%; in test [3] it was 73%. In addition, the activity at 50 µM came out at 5.8% in test [1], 48.4% in test [2] and 1.6% in test [3].

For `COc1ccc(NC(=[Se])NC(=O)c2ccco2)cc1` [Compound 6c], the values for the activity at 10 µM in test [1], in test [2] and in test [3] were 70%, 74.5% and 74.2%, respectively. For the same compound, the activity at 50 µM in test [1] stood at 13.1%; in test [2] it was 35.9%; in test [3] it was 3.8%.

With `O=C(NC(=[Se])Nc1ccc(C(F)(F)F)cc1)c1ccco1` [Compound 6d], the results for the activity at 10 µM in test [1], in test [2] and in test [3] were 71.7%, 81.5% and 59.4%, respectively. The results for the activity at 50 µM in test [1], in test [2] and in test [3] were 11.9%, 18.7% and 4.6%, respectively.

Take `O=C(NC(=[Se])Nc1ccc(Cl)cc1)c1ccco1` [Compound 6e]: the values for the activity at 10 µM in test [1], in test [2] and in test [3] were 62.7%, 75.2% and 84.1%, respectively. Also, the activity at 50 µM in test [1] turned out to be 11.2%; in test [2] it was 31.1%; in test [3], 4%.

Regarding `COc1ccc(NC(=[Se])NC(=O)C23CC4CC(CC(C4)C2)C3)cc1` [Compound 7c], the activity at 10 µM stood at 91.8% in test [1], 59.6% in test [2] and 98.4% in test [3]. The activity at 50 µM in test [1] came out at 24.3%; in test [2], 34%; in test [3], 48.3%.

Regarding `O=C(NC(=[Se])Nc1ccc(C(F)(F)F)cc1)C12CC3CC(CC(C3)C1)C2` [Compound 7d], the activity at 10 µM in test [1] amounted to 87.9%; in test [2] it was 49.5%; in test [3], 92.9%. For the same compound, the activity at 50 µM worked out at 25.3% in test [1], 29.6% in test [2] and 79.8% in test [3].

Turning to `O=C(NC(=[Se])Nc1ccc(Cl)cc1)C12CC3CC(CC(C3)C1)C2` [Compound 7e], the activity at 10 µM is 83.9% in test [1], 53.5% in test [2] and 111% in test [3]. For the same compound, the activity at 50 µM in test [1] worked out at 39%; in test [2], 45.9%; in test [3] it was 36.4%.
